In PMC8478281, “Targeting the FtsZ Allosteric Binding Site with a Novel Fluorescence Polarization Screen, Cytological and Structural Approaches for Antibacterial Discovery” (Journal of Medicinal Chemistry, 2021):
Values after ≈ are worked out from the molar mass of the structure shown. Like-named read-outs stand apart in the source and are kept apart here.

How the values were obtained:
[1] = system: S. aureus Mu50; test: Minimal growth inhibitory concentration (broth macrodilution), S. aureus Mu50; assay type: cell-based, Staphylococcus aureus
Outline: (§1)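 Strains grown in cation-adjusted Mueller–Hinton broth at 37 °C (B. subtilis SU570 at 30 °C) to A600 0.1–0.2, then exposed to compounds or DMSO. MIC by broth macrodilution; division phenotype assessed by microscopy and cell measurement.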

[2] = target: T1, glutaraldehyde-stabilized FtsZ polymers (Bacillus subtilis, UniProt P17865); test: Stoichiometry of probe binding by polymer pelleting (centrifugation assay)
T1 construct: made in house
T1 sequence (P17865 whole entry): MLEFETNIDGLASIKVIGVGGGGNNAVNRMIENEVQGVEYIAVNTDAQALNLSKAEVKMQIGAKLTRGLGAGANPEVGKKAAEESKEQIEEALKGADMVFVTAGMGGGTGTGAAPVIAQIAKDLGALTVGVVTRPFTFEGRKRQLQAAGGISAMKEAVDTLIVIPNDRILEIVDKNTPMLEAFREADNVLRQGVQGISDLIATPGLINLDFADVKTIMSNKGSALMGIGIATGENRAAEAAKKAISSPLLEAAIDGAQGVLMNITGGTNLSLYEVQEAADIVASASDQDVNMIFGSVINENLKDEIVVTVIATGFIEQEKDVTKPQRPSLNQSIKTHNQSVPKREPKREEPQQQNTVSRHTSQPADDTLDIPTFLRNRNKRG
Experimental: The stoichiometry of binding of (R)-5 to stabilized FtsZ polymers was measured using a centrifugation assay adapted from ref ([49]). Then, FtsZ polymers (10 μM) were incubated at 25 °C in HEPES buffer, 10 mM MgCl2, 2% DMSO, and 0.1 mM GMPCPP at 25 °C in the presence of different probe concentrations, in a final volume of 0.1 mL. The samples were then centrifuged for 20 min at 100 000 rpm and 25 °C in a TLA-100 rotor. After centrifugation, the supernatant was carefully withdrawn and the pellets were resuspended in the same volume of buffer. The concentration of the free probe was determined spectrophotometrically in the supernatant, employing an extinction coefficient ε483 = 25 400 M^–1 cm^–1 for (R)-5 and the concentration of probe bound to FtsZ was calculated as the difference of the known total concentration of probe minus the free concentration. To calculate the FtsZ polymer concentration, 5 μL of the resuspended pellet was applied to sodium dodecyl sulfate (SDS)-12% polyacrylamide gels, stained with Coomassie blue, scanned with a CS-800 calibrated densitometer (BioRad), and the protein bands quantified using Quantity One software (BioRad).

[3] = target: T2, FtsZ-GMPCPP polymers (BsFtsZ) (Bacillus subtilis, UniProt P17865); test: Binding titration of the fluorescent probes to FtsZ polymers by fluorescence anisotropy
T2 construct: made in house
T2 sequence (P17865 whole entry): as above
Experimental: (§2) FtsZ from B. subtilis (BsFtsZ) was prepared as described previously.[35] FtsZ was assembled in 50 mM N-(2-hydroxyethyl)piperazine-N′-ethanesulfonic acid (HEPES)-KOH, 50 mM KCl, 1 mM ethylenediaminetetraacetic acid (EDTA), pH 6.8 (HEPES buffer) plus 10 mM MgCl2, and 1 mM GTP or 0.1 mM GMPCPP at 25 °C. FtsZ assembly was monitored by light scattering.[34]
The fluorescence spectra and anisotropy values of the different probes were acquired with a Fluoromax-4 (Horiba Jobin Yvon) photon-counting L-format spectrofluorometer using 2 mm × 10 mm cells at 25 °C, employing the maximum excitation and emission wavelength for each probe with 2 and 5 nm bandwidths, respectively. Anisotropy values were automatically measured as r = (Ivv – G Ivh)/(Ivv + 2G Ivh), where the subscripts refer to the vertical (v) or horizontal (h) positions of the excitation (first subscript) and emission (second subscript) polarizers, and G = Ihv/Ihh. Total intensity values were simultaneously determined as IT = Ivv +2G Ivh. Note that measurement correction procedures with T-format (double channel) fluorometers and with plate readers are slightly different.
FtsZ (10–15 μM) was assembled in HEPES buffer, 10 mM MgCl2, 50 μM GMPCPP at 25 °C for 10 min, and then 0.15% (v/v) glutaraldehyde[36] (distilled grade for microscopy, TAAB Laboratories, U.K.) was added to the solution that was incubated at 25 °C for 10 min more. (This was the minimal glutaraldehyde concentration determined to stabilize FtsZ polymers specifically binding probe 1.) The remains of the cross-linking agent were quenched by adding 60 mM NaBH4, the sample was incubated on ice for 10 min and degassed.[36] Cross-linked polymers were centrifuged for 10 min at 8200g (5000 rpm) and 4 °C in 15 mL Falcon tubes employing a Rotina 380R (Hettich) centrifuge, the supernatant was removed and the pellet was resuspended in the same volume of HEPES buffer, 10 mM MgCl2, containing 5 μM GMPCPP. Fixed FtsZ polymers were active in binding assays after more than 2 days at 4 °C; they could also be frozen in liquid nitrogen with a small loss of binding capacity. […] Cross-linked polymers of SaFtsZ were similarly prepared.
Binding affinity of the probes to FtsZ was measured by an increase in anisotropy of the probe (adapted from ref ([49])). Fixed concentrations of the probes (3 μM) were titrated with different FtsZ polymer concentrations (0–40 μM) in HEPES buffer with Mg^2+, to obtain the anisotropy increment, Δrmax, corresponding to the bound probe. The increase in anisotropy was plotted against the FtsZ polymer concentration (calculated by subtracting from the total protein concentration the critical concentration for polymerization under the same conditions) and iteratively least-squares fitted with an isotherm of binding to one site. The estimated values of Δrmax were used to approximate the free FtsZ concentrations, and these new values were employed again until an unchanging Δrmax value was obtained. The convergent data were used to calculate the binding constant of the fluorescent probe to FtsZ polymers (Table S1).

[4] = system: B. subtilis; test: Minimal growth inhibitory concentration (broth macrodilution), B. subtilis; assay type: cell-based, Bacillus subtilis; settings: Table S1, fluorescent probes
Outline: as §1

[5] = target: T3, BsFtsZ (Bacillus subtilis, UniProt P17865); test: Fluorescence anisotropy of probes after consecutive additions of FtsZ, GMPCPP, MgCl2 and PC190723; assay type: binding; settings: for Fluorescence anisotropy (r): free probe: probe 10 μM in buffer; for Fluorescence anisotropy (r): + FtsZ (unassbld.) / Fluorescence anisotropy (r): + GMPCPP / Fluorescence anisotropy (r): + MgCl2 (polymer): probe 10 μM, FtsZ 10 μM; for Fluorescence anisotropy (r): + GMPCPP / Fluorescence anisotropy (r): + MgCl2 (polymer): GMPCPP 0.1 mM; for Fluorescence anisotropy (r): + MgCl2 (polymer): MgCl2 10 mM, 5–10 min
T3 construct: made in house
T3 sequence (P17865 whole entry): as above
Experimental: (A) Fluorescence anisotropy values of the free probes (10 μM) in buffer, to which FtsZ (10 μM, unassembled) was added, followed by the slowly hydrolyzable GTP analogue GMPCPP (0.1 mM). BsFtsZ polymerization was then induced by the addition of MgCl2 (10 mM) and anisotropy values were recorded 5–10 min later. Nonfluorescent PC190723 (10 μM) was subsequently added to displace the fluorescent probe and anisotropy was measured 5 min later. (B) Fluorescence microscopy images of B. subtilis cells treated for 1.5 h with the minimal division inhibitory concentrations (MDC) of (S)-2 and each enantiomer of 5 (Table S1), acquired employing the probe fluorescence.
as §2

[6] = system: B. subtilis; set-up: method as in earlier work; settings: Table S1; ref 1 (Artola et al., Chem. Sci. 2017); cited from earlier work
[7] = FtsZ-GMPCPP polymers, best fit values from binding titrations
[8] = binding to stabilized FtsZ polymers

Row | Compound | effect on growth of S. aureus Mu50, in words ([1]; 250 µM) | MIC S. aureus Mu50 ([1]; Table S1, fluorescent probes) | stoichiometry of probe binding [2] | Imax/Imin [3, 7] | rmax (all probe bound) [3, 7] | rmin (free probe) [3, 7] | Kd [3, 7] | Kd [3, 8] | Imax/Imin [3, 8] | rmax (all probe bound) [3, 8] | rmin (free probe) [3, 8] | MIC B. subtilis [4] | Fluorescence anisotropy (r): + PC190723 ([5]; data from Fig. 5A) | Fluorescence anisotropy (r): free probe [5] | Fluorescence anisotropy (r): + FtsZ (unassbld.) [5] | Fluorescence anisotropy (r): + GMPCPP [5] | Fluorescence anisotropy (r): + MgCl2 (polymer) [5] | Fluorescence anisotropy (r): + PC190723 ([5]; PC190723 10 μM added to the polymer, 5 min) | MIC B. subtilis [6]
1 | CCC[C@H](COc1ccc(F)c(C(N)=O)c1F)Nc1ccc([N+](=O)[O-])c2nonc12 [(R)-5] | partially inhibited growth | > 250 µM | 0.6 molecules per FtsZ monomer | 6.2 | 0.272 | 0.029 | 1.9 ± 0.6 µM | 2 ± 0.5 µM | 5.0 | 0.268 | 0.029 | 25 µM (≈ 10.5 µg/mL) | 0.052 | 0.029 | 0.041 | 0.040 | 0.227 | – | –
2 | NC(=O)c1c(F)ccc(OCCNc2ccc([N+](=O)[O-])c3nonc23)c1F [Compound 1, reference compound] | – | – | – | 1.0 | 0.213 | 0.024 | 26 ± 3 µM | 17 ± 1 µM | 1.0 | 0.26 | 0.024 | – | – | 0.022 | 0.027 | 0.026 | 0.080 | 0.029 | 800 µM (≈ 303 µg/mL)
